Measured values as given in ChEMBL document CHEMBL1149210, “A novel series of potent and selective small molecule inhibitors of the complement component C1s” (Bioorg Med Chem Lett, 2004).

Tests used:
[1] = target: T1, Complement C1s subcomponent (Homo sapiens, UniProt P09871); experiment: In vitro binding affinity towards human Complement C1s subcomponent
T1 sequence (P09871 whole entry): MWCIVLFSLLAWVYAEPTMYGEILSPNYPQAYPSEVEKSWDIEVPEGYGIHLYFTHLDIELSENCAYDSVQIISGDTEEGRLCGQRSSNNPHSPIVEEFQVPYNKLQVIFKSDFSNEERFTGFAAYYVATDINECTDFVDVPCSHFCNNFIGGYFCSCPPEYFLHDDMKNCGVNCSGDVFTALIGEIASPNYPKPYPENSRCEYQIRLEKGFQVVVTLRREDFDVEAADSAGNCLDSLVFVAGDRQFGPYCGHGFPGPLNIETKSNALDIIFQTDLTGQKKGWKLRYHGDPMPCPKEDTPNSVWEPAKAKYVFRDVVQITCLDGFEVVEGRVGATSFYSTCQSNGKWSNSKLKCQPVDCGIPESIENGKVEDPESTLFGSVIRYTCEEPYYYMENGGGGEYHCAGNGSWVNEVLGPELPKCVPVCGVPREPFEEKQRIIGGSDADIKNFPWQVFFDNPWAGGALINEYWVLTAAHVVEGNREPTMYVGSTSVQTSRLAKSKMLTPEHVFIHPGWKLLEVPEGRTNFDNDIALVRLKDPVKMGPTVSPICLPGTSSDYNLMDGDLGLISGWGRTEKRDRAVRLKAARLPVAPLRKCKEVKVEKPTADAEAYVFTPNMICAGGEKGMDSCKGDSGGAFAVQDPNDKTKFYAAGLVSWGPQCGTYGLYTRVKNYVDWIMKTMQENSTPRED

Plasminogen = Plasminogen (Rattus norvegicus, UniProt Q01177); experiment: In vitro binding affinity towards plasmin was determined
[2] = In vitro binding affinity towards human Complement C1r subcomponent
Prothrombin = Prothrombin (Homo sapiens, UniProt P00734); experiment: In vitro binding affinity towards thrombin was determined
Coagulation factor X = Coagulation factor X (Homo sapiens, UniProt P00742); experiment: In vitro binding affinity towards Coagulation factor X was determined
Serine protease 1 = Serine protease 1 (Homo sapiens, UniProt P07477); experiment: In vitro binding affinity towards trypsin was determined
Serine protease 1, sequence (P07477 whole entry): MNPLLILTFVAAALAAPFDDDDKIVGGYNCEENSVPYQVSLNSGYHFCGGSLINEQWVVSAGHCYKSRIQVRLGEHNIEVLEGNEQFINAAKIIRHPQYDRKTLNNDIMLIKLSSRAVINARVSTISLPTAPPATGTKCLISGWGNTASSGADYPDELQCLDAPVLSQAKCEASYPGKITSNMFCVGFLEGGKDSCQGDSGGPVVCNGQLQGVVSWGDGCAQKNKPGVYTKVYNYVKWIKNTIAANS

Coagulation factor X, sequence (P00742 41-179 limits assumed): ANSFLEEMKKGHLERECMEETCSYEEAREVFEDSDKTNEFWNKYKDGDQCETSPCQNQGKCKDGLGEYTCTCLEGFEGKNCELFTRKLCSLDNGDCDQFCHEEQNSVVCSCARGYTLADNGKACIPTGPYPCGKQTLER
Coagulation factor X, sequence (P00742 235-488 limits assumed): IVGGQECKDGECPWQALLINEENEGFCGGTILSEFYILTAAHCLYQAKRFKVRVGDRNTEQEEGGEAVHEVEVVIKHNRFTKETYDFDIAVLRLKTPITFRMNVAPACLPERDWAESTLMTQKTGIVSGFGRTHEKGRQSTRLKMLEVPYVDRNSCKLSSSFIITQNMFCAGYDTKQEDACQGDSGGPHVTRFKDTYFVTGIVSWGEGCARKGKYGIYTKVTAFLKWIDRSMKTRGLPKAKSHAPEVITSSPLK
Plasminogen, sequence (Q01177 97-581 limits assumed): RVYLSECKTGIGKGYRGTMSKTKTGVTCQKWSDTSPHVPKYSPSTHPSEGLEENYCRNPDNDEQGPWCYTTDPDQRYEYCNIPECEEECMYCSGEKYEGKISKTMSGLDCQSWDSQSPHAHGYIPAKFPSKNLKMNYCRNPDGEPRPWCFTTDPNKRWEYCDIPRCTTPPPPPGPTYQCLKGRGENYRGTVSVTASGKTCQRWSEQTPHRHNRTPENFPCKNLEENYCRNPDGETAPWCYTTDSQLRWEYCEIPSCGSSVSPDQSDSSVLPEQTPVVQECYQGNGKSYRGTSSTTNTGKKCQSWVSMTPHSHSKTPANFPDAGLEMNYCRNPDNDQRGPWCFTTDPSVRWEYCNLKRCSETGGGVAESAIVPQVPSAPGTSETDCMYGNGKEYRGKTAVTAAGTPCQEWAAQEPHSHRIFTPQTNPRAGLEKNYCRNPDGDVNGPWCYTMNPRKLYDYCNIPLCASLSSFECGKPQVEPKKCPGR
Plasminogen, sequence (Q01177 582-812 limits assumed): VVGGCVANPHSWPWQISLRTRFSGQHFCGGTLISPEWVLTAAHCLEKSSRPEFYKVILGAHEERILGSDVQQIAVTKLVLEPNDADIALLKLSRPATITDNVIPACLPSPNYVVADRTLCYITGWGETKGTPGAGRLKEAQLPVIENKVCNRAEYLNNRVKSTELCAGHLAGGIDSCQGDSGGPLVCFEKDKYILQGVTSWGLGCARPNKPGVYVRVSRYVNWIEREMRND

Ki [1] [nM] | Compound | other results
1500 | CSc1sc(C(=N)N)cc1-c1nc(-c2cnn(-c3ccccc3)c2OCCC(C)C)cs1 | 
460 | CSc1sc(C(=N)N)cc1-c1nc(-c2cnn(C)c2)cs1 | 
530 | CSc1sc(C(=N)N)cc1-c1nc(-c2cnn(-c3ccccc3)c2OCC2CCC2)cs1 | 
12500 | N=C(N)c1cc(-c2nc(-c3ccccc3)cs2)c(C(F)(F)F)s1 | 
> 20000 | N=C(N)c1cc(-c2nc(-c3ccccc3)cs2)c(SCc2ccccc2)s1 | 
> 20000 | CCSc1sc(C(=N)N)cc1-c1nc(-c2ccccc2)cs1 | 
> 28000 | CS(=O)(=O)c1sc(C(=N)N)cc1-c1nc(-c2ccccc2)cs1 | 
6000 | Cc1sc(C(=N)N)cc1-c1nc(-c2ccccc2)cs1 | 
190 | CCCc1nn(C)cc1-c1csc(-c2cc(C(=N)N)sc2SC)n1 | 
560 | CSc1sc(C(=N)N)cc1-c1nc(-c2ccccc2)cs1 | 
850 | COc1ccccc1-c1csc(-c2cc(C(=N)N)sc2SC)n1 | 
4700 | CSc1sc(C(=N)N)cc1-c1nc(C2CCCCC2)cs1 | 
3000 | CSc1sc(C(=N)N)cc1-c1nc(-c2ccc(Cl)cc2Cl)cs1 | 
1020 | CSc1sc(C(=N)N)cc1-c1nc(-c2cccnc2Cl)cs1 | 
900 | COc1ccc(-c2csc(-c3cc(C(=N)N)sc3SC)n2)cc1 | 
436 | CSc1sc(C(=N)N)cc1-c1nc(-c2ccc(Cl)cc2)cs1 | 
640 | COc1ccc(-c2csc(-c3cc(C(=N)N)sc3SC)n2)c(OC)c1 | 
960 | CSc1sc(C(=N)N)cc1-c1nc(-c2cccc(C)c2)cs1 | 
870 | CSc1sc(C(=N)N)cc1-c1nc(-c2cnccc2Cl)cs1 | 
520 | CSc1sc(C(=N)N)cc1-c1nc(COc2ccccc2)cs1 | 

Ki [1] [nM] | Compound | other results
450 | CSc1sc(C(=N)N)cc1-c1nc(-c2csc3ccccc23)cs1 | 
850 | CSc1sc(C(=N)N)cc1-c1nc(-c2ccccc2C)cs1 | 
1000 | CSc1sc(C(=N)N)cc1-c1nc(-c2ccc([N+](=O)[O-])cc2)cs1 | 
470 | COc1cccc(-c2csc(-c3cc(C(=N)N)sc3SC)n2)c1 | 
1060 | CSc1sc(C(=N)N)cc1-c1nc(Cc2ccccc2)cs1 | 
490 | CSc1sc(C(=N)N)cc1-c1nc(-c2ccc3ccccc3c2)cs1 | 
420 | CSc1sc(C(=N)N)cc1-c1nc(-c2ccc(C)cc2)cs1 | 
700 | CSc1sc(C(=N)N)cc1-c1nc(-c2cccs2)cs1 | 
70 | CCCc1c(-c2csc(-c3cc(C(=N)N)sc3SC)n2)cnn1-c1ccccn1 | Ki (Plasminogen): 5000 nM; Ki [2]: > 50000 nM; Ki (Prothrombin): > 50000 nM; Ki (Coagulation factor X): 5000 nM; Ki (Serine protease 1): 180 nM
330 | CCCc1c(-c2csc(-c3cc(C(=N)N)sc3SC)n2)cnn1C | 
60 | CCCc1c(-c2csc(-c3cc(C(=N)N)sc3SC)n2)cnn1-c1ccccc1 | 
90 | CCOc1c(-c2csc(-c3cc(C(=N)N)sc3SC)n2)cnn1-c1ccccc1 | 
> 20000 | N=C(N)c1cc(-c2nc(-c3ccccc3)cs2)cs1 | 
14400 | COc1sc(C(=N)N)cc1-c1nc(-c2ccccc2)cs1 | 
3250 | CSc1sc(C(=N)N)cc1-c1ncc(-c2ccccc2)s1 | 
150 | CSc1sc(C(=N)N)cc1-c1nc(-c2cnn(-c3ccccc3)c2)cs1 | 
860 | CSc1sc(C(=N)N)cc1-c1nc(-c2ccc(Cl)c([N+](=O)[O-])c2)cs1 | 
15400 | CSc1sc(C(=N)N)cc1-c1nc(-c2ccc(-c3ccccc3)cc2)cs1 | 
3000 | CCc1sc(C(=N)N)cc1-c1nc(-c2ccccc2)cs1 | 
